Reference: patent US20260098026A1, “M4 ACTIVATORS/MODULATORS AND USES THEREOF” (Cerevel Therapeutics, LLC, priority 2022, published 2026)

Assays:
[1] = biological target: T1, M3 muscarinic acetylcholine receptor (mAChR) (Homo sapiens, UniProt P20309); experiment: FLIPR calcium assay (Fluo 8), M3-overexpressing CHO-K1 cells; type: cell-based
T1 construct: expressed in transfected cells; host or cells: CHO-K1
Procedure: Stimulation of a Gq-coupled G-protein coupled receptors (GPCRs), result in an efflux of calcium from the endoplasmic reticulum to the cytoplasm (Berridge, 1993), thus rendering this assay appropriate for the assessment of M1, M3 and M5 receptors. CHO-K1 cells overexpressing the M1, M3, or M5 muscarinic acetylcholine receptor (mAChR) were dispensed at 15,000 cells per well in 30 μl volume to 384-well plates and grown overnight at 37° C. in a 5% CO2 atmosphere. Fluo-8 Solution, 10 μl per well, was added to each well and incubated for 30 minutes at 37° C. in a 5% CO2 atmosphere. Compounds diluted in Hanks' balanced salt solution (HBSS) were transferred to the cell assay plate at 10 μl per well, and then read on a FLIPR instrument. EC50 and Emax figures were calculated from the resulting data for each receptor subtype.

M4 mAChR = biological target: T2, M4 mAChR (Homo sapiens, UniProt P08173); experiment: cAMP TR-FRET assay with forskolin, M4-overexpressing CHO-K1 cells; type: cell-based
T2 construct: expressed in transfected cells; host or cells: CHO-K1
T2 sequence (P08173 1-479): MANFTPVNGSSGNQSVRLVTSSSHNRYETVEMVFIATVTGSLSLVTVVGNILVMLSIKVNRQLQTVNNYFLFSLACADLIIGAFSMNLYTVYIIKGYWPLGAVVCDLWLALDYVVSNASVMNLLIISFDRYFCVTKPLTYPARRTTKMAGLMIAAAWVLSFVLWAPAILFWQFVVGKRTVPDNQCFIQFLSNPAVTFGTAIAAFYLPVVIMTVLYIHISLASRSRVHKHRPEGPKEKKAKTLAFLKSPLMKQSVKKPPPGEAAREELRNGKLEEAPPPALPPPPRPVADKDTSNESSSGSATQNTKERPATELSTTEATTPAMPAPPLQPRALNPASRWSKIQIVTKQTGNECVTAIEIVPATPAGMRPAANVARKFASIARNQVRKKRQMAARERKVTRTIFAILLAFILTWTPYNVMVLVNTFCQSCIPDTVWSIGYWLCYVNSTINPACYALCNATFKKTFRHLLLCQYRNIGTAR
Text: The M2 and M4 mACh receptors are Gi-coupled receptors which, upon activation, produce a decrease in cAMP. Assays were developed that measured the potency and efficacy of compounds at the M2 or M4 mAChR using M2- or M4-overexpressing CHO-K1 cell lines. Time-resolved fluorescence resonance energy transfer (TR-FRET) technology was used, where signal occurs as a result of transfer of energy if the donor molecule is in close proximity to an acceptor molecule when the molecules have bound to the molecule of interest. The cAMP detection is a competition binding assay, where cAMP produced by cells competes for binding with the labeled donor molecule to the anti-cAMP acceptor antibody. Due to the low basal levels of cAMP in the CHO-K1 cell line, forskolin was used to increase cAMP levels to enable assessment of agonist activity at the mAChR of interest.

T1 sequence (P20309 whole entry): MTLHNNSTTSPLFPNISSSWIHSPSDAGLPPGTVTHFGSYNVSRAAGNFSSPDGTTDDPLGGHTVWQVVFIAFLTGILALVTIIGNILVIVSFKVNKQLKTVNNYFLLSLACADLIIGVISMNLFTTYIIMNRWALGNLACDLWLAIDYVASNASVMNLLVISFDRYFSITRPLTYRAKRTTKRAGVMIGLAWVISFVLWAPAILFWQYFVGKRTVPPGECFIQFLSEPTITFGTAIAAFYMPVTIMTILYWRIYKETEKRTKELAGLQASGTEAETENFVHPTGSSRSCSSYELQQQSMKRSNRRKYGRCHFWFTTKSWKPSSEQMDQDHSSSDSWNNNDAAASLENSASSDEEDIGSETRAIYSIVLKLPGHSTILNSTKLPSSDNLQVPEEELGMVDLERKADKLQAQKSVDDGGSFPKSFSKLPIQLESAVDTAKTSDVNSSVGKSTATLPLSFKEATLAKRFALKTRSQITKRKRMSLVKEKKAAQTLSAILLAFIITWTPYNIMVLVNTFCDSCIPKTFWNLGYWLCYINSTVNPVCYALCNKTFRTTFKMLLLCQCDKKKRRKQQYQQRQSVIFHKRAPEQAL

Row | SMILES | EC50 ([1]; FLIPR calcium) | Emax (M4 mAChR; cAMP TR-FRET with forskolin) | EC50 ([1]; FLIPR) | Emax (M4 mAChR; cAMP assay)
1 | CCOC(=O)N1CC2(CC[C@@H](N3CCN(c4cc(F)cnc4-c4cnn(CCOC)c4)CC3)C2)C1 [Compound A38] | > 10 µM | 80 to 100% |  | 
2 | CCOC(=O)N1CC2(CC[C@@H](N3CCN(c4cc(F)cnc4-c4cc(C)cnc4OC)CC3)C2)C1 [Compound A50] | > 10 µM | 50 to 79.9% |  | 
3 | CCOC(=O)N1CC2(CC[C@@H](N3CCN(c4cc(F)cnc4-c4cccc(C#N)c4)CC3)C2)C1 [Compound A39] | > 10 µM | 80 to 100% |  | 
4 | CCOC(=O)N1CC2(CC[C@@H](N3CCN(c4cc(F)cnc4-c4cnc(C#N)c(F)c4)CC3)C2)C1 [Compound A83] | > 10 µM | 80 to 100% |  | 
5 | CCOC(=O)N1CC2(CC[C@@H](N3CCN(c4cc(F)cnc4-c4ccc5cn(C)nc5c4)CC3)C2)C1 [Compound A68] | > 10 µM | 80 to 100% |  | 
6 | CCOC(=O)N1CC2(CC[C@@H](N3CCN(c4cc(Cl)cnc4-c4cnn(C(C)C)n4)CC3)C2)C1 [Compound A258] |  |  | > 10 µM | 50 to 79.9%
7 | CCOC(=O)N1CC2(CC[C@@H](N3CCN(c4cc(F)cnc4-c4cnn5c4CCCC5)CC3)C2)C1 [Compound A160] |  |  | > 10 µM | 80 to 100%
8 | CCOC(=O)N1CC2(CC[C@@H](N3CCN(c4cc(F)cnc4-c4ccc(F)nc4C)CC3)C2)C1 [Compound A161] |  |  | > 10 µM | 80 to 100%
9 | CCOC(=O)N1CC2(CC[C@@H](N3CCN(c4cc(F)cnc4-c4cncnc4C)CC3)C2)C1 [Compound A181] |  |  | > 10 µM | 80 to 100%
10 | CCOC(=O)N1CC2(CC[C@@H](N3CCN(c4cc(F)cnc4-c4csc(CO)c4)CC3)C2)C1 [Compound A86] | > 10 µM | 80 to 100% |  | 
11 | CCOC(=O)N1CC2(CC[C@@H](N3CCN(c4cc(F)cnc4-c4cnc(C5CC5)nc4)CC3)C2)C1 [Compound A183] |  |  | > 10 µM | 80 to 100%
12 | CCOC(=O)N1CC2(CC[C@@H](N3CCN(c4cc(F)cnc4-c4ccc(OC)cc4CO)CC3)C2)C1 [Compound A145] | > 10 µM | 80 to 100% |  | 
13 | CCOC(=O)N1CC2(CC[C@@H](N3CCN(c4cc(F)cnc4-c4cccnc4C)CC3)C2)C1 [Compound A109] | > 10 µM | 80 to 100% |  | 
14 | CCOC(=O)N1CC2(CC[C@@H](N3CCN(c4cc(F)cnc4-c4ccc(O)c(F)c4)CC3)C2)C1 [Compound A44] | > 10 µM | 80 to 100% |  | 
15 | CCOC(=O)N1CC2(CC[C@@H](N3CCN(c4cc(F)cnc4-c4cnc(N5CCC5)nc4)CC3)C2)C1 [Compound A124] | > 10 µM | 80 to 100% |  | 
16 | CCOC(=O)N1CC2(CC[C@@H](N3CCN(c4cc(F)cnc4-c4cc(F)ccc4CO)CC3)C2)C1 [Compound A117] | > 10 µM | 80 to 100% |  | 
17 | CCOC(=O)N1CC2(CC[C@H](N3CCN(c4cc(F)cnc4C4CCOCC4)CC3)C2)C1 [Compound A274] |  |  | > 10 µM | 80 to 100%
18 | CCOC(=O)N1CC2(CC[C@@H](N3CCN(c4cc(F)cnc4-c4ccc(C#N)cc4)CC3)C2)C1 [Compound A182] |  |  | > 10 µM | 80 to 100%
19 | CCOC(=O)N1CC2(CC[C@@H](N3CCN(c4cc(F)cnc4-c4cnc(C(F)(F)F)cn4)CC3)C2)C1 [Compound A250] |  |  | > 10 µM | 80 to 100%
20 | CCOC(=O)N1CC2(CC[C@@H](N3CCN(c4cc(F)cnc4-c4cccc(CCO)c4)CC3)C2)C1 [Compound A90] | > 10 µM | 80 to 100% |  | 
21 | CCOC(=O)N1CC2(CC[C@@H](N3CCN(c4cc(F)cnc4-c4ccc5c(c4)OCCO5)CC3)C2)C1 [Compound A48] | > 10 µM | 80 to 100% |  | 

Row | SMILES | EC50 ([1]; FLIPR calcium) | Emax (M4 mAChR; cAMP TR-FRET with forskolin) | EC50 ([1]; FLIPR) | Emax (M4 mAChR; cAMP assay)
22 | CCOC(=O)N1CC2(CC[C@@H](N3CCN(c4cc(F)cnc4-c4cccc(O)n4)CC3)C2)C1 [Compound A143] | > 10 µM | 80 to 100% |  | 
23 | CCOC(=O)N1CC2(CC[C@@H](N3CCN(c4cc(F)cnc4-c4ccc5c(c4)OCO5)CC3)C2)C1 [Compound A130] | > 10 µM | 80 to 100% |  | 
24 | CCOC(=O)N1CC2(CC[C@@H](N3CCN(c4cc(F)cnc4-c4cccc(CO)c4)CC3)C2)C1 [Compound A57] | > 10 µM | 80 to 100% |  | 
25 | CCOC(=O)N1CC2(CC[C@@H](N3CCN(c4cc(Cl)cnc4-c4ccc(=O)n(C)c4)CC3)C2)C1 [Compound A207] |  |  | > 10 µM | 80 to 100%
26 | CCOC(=O)N1CC2(CC[C@@H](N3CCN(c4cc(F)cnc4-c4cnc(C(F)F)cn4)CC3)C2)C1 [Compound A253] |  |  | > 10 µM | 80 to 100%
27 | CCOC(=O)N1CC2(CC[C@@H](N3CCN(c4cc(F)cnc4OC4CC5(COC5)C4)CC3)C2)C1 [Compound A233] |  |  | > 10 µM | 80 to 100%
28 | CCOC(=O)N1CC2(CC[C@@H](N3CCN(c4cc(F)cnc4-c4cc(F)cc(CO)c4)CC3)C2)C1 [Compound A154] |  |  | > 10 µM | 80 to 100%
29 | CCOC(=O)N1CC2(CC[C@@H](N3CCN(c4cc(F)cnc4-c4ccnc(F)c4OC)CC3)C2)C1 [Compound A163] |  |  | > 10 µM | 80 to 100%
30 | CCOC(=O)N1CC2(CC[C@@H](N3CCN(c4cc(F)cnc4C4CCN(C)CC4)CC3)C2)C1 [Compound A273] |  |  | > 10 µM | 80 to 100%
31 | CCOC(=O)N1CC2(CC[C@@H](N3CCN(c4cc(F)cnc4-c4ccc5c[nH]nc5c4)CC3)C2)C1 [Compound A159] |  |  | > 10 µM | 80 to 100%
32 | CCOC(=O)N1CC2(CC[C@@H](N3CCN(c4cc(F)cnc4-c4cnc(F)c(F)c4)CC3)C2)C1 [Compound A79] | > 10 µM | 80 to 100% |  | 
33 | CCOC(=O)N1CC2(CC[C@@H](N3CCN(c4cc(F)cnc4C4=CCN(C)CC4)CC3)C2)C1 [Compound A197] |  |  | > 10 µM | 80 to 100%
34 | CCOC(=O)N1CC2(CC[C@@H](N3CCN(c4cc(F)cnc4-c4ccc5nccn5c4)CC3)C2)C1 [Compound A96] | > 10 µM | 80 to 100% |  | 
35 | CCOC(=O)N1CC2(CC[C@@H](N3CCN(c4cc(F)cnc4-c4ccccc4C#N)CC3)C2)C1 [Compound A47] | > 10 µM | 80 to 100% |  | 
36 | CCOC(=O)N1CC2(CC[C@@H](N3CCN(c4cc(F)cnc4-c4ccc5nc[nH]c5c4)CC3)C2)C1 [Compound A148] |  |  | > 10 µM | 80 to 100%
37 | CCOC(=O)N1CC2(CC[C@@H](N3CCN(c4cc(F)cnc4-c4ccncc4C#N)CC3)C2)C1 [Compound A64] | > 10 µM | 80 to 100% |  | 
38 | CCOC(=O)N1CC2(CCC(N3CCN(c4cccnc4N4CCC(OC)CC4)CC3)C2)C1 (stereo not drawn) [Compound A216] |  |  | > 10 µM | 80 to 100%
39 | CCOC(=O)N1CC2(CC[C@@H](N3CCN(c4cc(F)cnc4-c4ccnc5c4ccn5C)CC3)C2)C1 [Compound A89] | > 10 µM | 80 to 100% |  | 
40 | CCOC(=O)N1CC2(CC[C@@H](N3CCN(c4cc(F)cnc4-c4ccc(F)cc4CO)CC3)C2)C1 [Compound A147] | > 10 µM | 80 to 100% |  | 
41 | CCOC(=O)N1CC2(CC[C@@H](N3CCN(c4cc(F)cnc4-c4cnn(CC(F)F)c4)CC3)C2)C1 [Compound A172] |  |  | > 10 µM | 80 to 100%
42 | CCOC(=O)N1CC2(CC[C@@H](N3CCN(c4cc(Cl)cnc4C4CC5(COC5)C4)CC3)C2)C1 [Compound A279] |  |  | > 10 µM | 80 to 100%
